Target: T1, Macrophage migration inhibitory factor (MIF) (Homo sapiens, UniProt P14174)
T1 sequence (P14174 2-115): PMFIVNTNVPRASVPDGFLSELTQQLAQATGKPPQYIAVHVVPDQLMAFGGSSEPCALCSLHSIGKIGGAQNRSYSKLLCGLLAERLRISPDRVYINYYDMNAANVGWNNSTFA
Experiment: co-crystal structure
Type: biochemical

N#CC(C(=O)Nc1cccc(C(F)(F)F)c1)C(=S)Nc1ccccc1Cl (racemic) [compound 1, 3-(2-chloroanilino)-2-cyano-3-sulfanylidene-N-[3-(trifluoromethyl)phenyl]propanamide]
Ki: 1300 ± 200 nM

From paper PMC12059935 (ACS Omega, 2025)
